Test results: ChEMBL document CHEMBL1201862, “PubChem BioAssay data set” (2004)
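These data come from cells grown in 96-well plates and exposed to compound for 48 hours at five concentrations. GI50 = concentration required for 50% inhibition of growth.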 Active and inactive are the calls of the source. Cut-off read from the data, not from the text of the source: active = GI50 up to about 1.1 µM and inactive = higher.

What was measured:
Assay in all cases: NCI-60 cell line screen, 48 h
HOP-92 = test system: HOP-92
NCI/ADR-RES = test system: NCI/ADR-RES
COLO 205 = test system: COLO 205
ACHN = test system: ACHN
DU-145 = test system: DU-145
SN12C = test system: SN12C
A549 = test system: A549
BT-549 = test system: BT-549
SR = test system: SR
NCI-H460 = test system: NCI-H460
NCI-H23 = test system: NCI-H23
SK-MEL-2 = test system: SK-MEL-2
OVCAR-3 = test system: OVCAR-3
NCI-H522 = test system: NCI-H522
SK-OV-3 = test system: SK-OV-3
U-251 = test system: U-251
OVCAR-5 = test system: OVCAR-5
RPMI-8226 = test system: RPMI-8226
NCI-H226 = test system: NCI-H226
PC-3 = test system: PC-3
HCC 2998 = test system: HCC 2998
SK-MEL-28 = test system: SK-MEL-28
786-0 = test system: 786-0
SF-268 = test system: SF-268
OVCAR-4 = test system: OVCAR-4
RXF 393 = test system: RXF 393
SF-295 = test system: SF-295
HCT-116 = test system: HCT-116
IGROV-1 = test system: IGROV-1
HCT-15 = test system: HCT-15
HT-29 = test system: HT-29
MOLT-4 = test system: MOLT-4
SNB-75 = test system: SNB-75
SF-539 = test system: SF-539
Malme-3M = test system: Malme-3M
HOP-62 = test system: HOP-62
MDA-N = test system: MDA-N
CCRF-CEM = test system: CCRF-CEM
CAKI-1 = test system: CAKI-1
SW-620 = test system: SW-620
MCF7 = test system: MCF7
SNB-19 = test system: SNB-19
K562 = test system: K562
OVCAR-8 = test system: OVCAR-8
UO-31 = test system: UO-31
TK-10 = test system: TK-10
KM12 = test system: KM12
HL-60 = test system: HL-60
UACC-62 = test system: UACC-62
EKVX = test system: EKVX
UACC-257 = test system: UACC-257
T47D = test system: T47D
SK-MEL-5 = test system: SK-MEL-5
M14 = test system: M14
MDA-MB-435 = test system: MDA-MB-435
Hs-578T = test system: Hs-578T
LOX IMVI = test system: LOX IMVI
MDA-MB-231 = test system: MDA-MB-231
A498 = test system: A498

Question: What does the source list for O=C1c2ccccc2-c2nc3ccncc3n21?
Answer: GI50 (HOP-92): > 100 µM (inactive); GI50 (NCI/ADR-RES): > 100 µM (inactive); GI50 (COLO 205): > 100 µM (inactive); GI50 (ACHN): > 100 µM (inactive); GI50 (DU-145): 51.5 µM (inactive); GI50 (SN12C): > 100 µM (inactive); GI50 (A549): > 100 µM (inactive); GI50 (BT-549): > 100 µM (inactive); GI50 (SR): > 100 µM (inactive); GI50 (NCI-H460): > 100 µM (inactive); GI50 (NCI-H23): > 100 µM (inactive); GI50 (SK-MEL-2): > 100 µM (inactive); GI50 (OVCAR-3): > 100 µM (inactive); GI50 (NCI-H522): > 100 µM (inactive); GI50 (SK-OV-3): > 100 µM (inactive); GI50 (U-251): > 100 µM (inactive); GI50 (OVCAR-5): > 100 µM (inactive); GI50 (RPMI-8226): > 100 µM (inactive); GI50 (NCI-H226): > 100 µM (inactive); GI50 (PC-3): > 100 µM (inactive); GI50 (HCC 2998): > 100 µM (inactive); GI50 (SK-MEL-28): > 100 µM (inactive); GI50 (786-0): > 100 µM (inactive); GI50 (SF-268): > 100 µM (inactive); GI50 (OVCAR-4): > 100 µM (inactive); GI50 (RXF 393): > 100 µM (inactive); GI50 (SF-295): > 100 µM (inactive); GI50 (HCT-116): 30.5 µM (inactive); GI50 (IGROV-1): > 100 µM (inactive); GI50 (HCT-15): > 100 µM; GI50 (HT-29): > 100 µM (inactive); GI50 (MOLT-4): > 100 µM (inactive); GI50 (SNB-75): > 100 µM (inactive); GI50 (SF-539): > 100 µM (inactive); GI50 (Malme-3M): > 100 µM (inactive); GI50 (HOP-62): > 100 µM (inactive); GI50 (MDA-N): 31.1 µM (inactive); GI50 (CCRF-CEM): > 100 µM (inactive); GI50 (CAKI-1): > 100 µM (inactive); GI50 (SW-620): > 100 µM (inactive); GI50 (MCF7): > 100 µM (inactive); GI50 (SNB-19): > 100 µM (inactive); GI50 (K562): > 100 µM (inactive); GI50 (OVCAR-8): > 100 µM (inactive); GI50 (UO-31): > 100 µM (inactive); GI50 (TK-10): > 100 µM (inactive); GI50 (KM12): > 100 µM (inactive); GI50 (HL-60): > 100 µM (inactive); GI50 (UACC-62): > 100 µM (inactive); GI50 (EKVX): > 100 µM (inactive); GI50 (UACC-257): > 100 µM (inactive)

Question: How did the GI50 (T47D) turn out when C=CCNC(=S)N/C=C(\C#N)C(N)=O was run?
Answer: The GI50 was > 100 µM (inactive).

Question: And the GI50 (SK-MEL-5)?
Answer: Its GI50 is > 100 µM (inactive).

Question: And the GI50 (NCI/ADR-RES)?
Answer: Its GI50 is > 100 µM (inactive).

Question: And the GI50 (COLO 205)?
Answer: Its GI50 is > 100 µM (inactive).

Question: And the GI50 (ACHN)?
Answer: Its GI50 is > 100 µM (inactive).

Question: What about the GI50 (DU-145) of the same molecule?
Answer: The GI50 was > 100 µM (inactive).

Question: And the GI50 (SN12C)?
Answer: Its GI50 is > 100 µM (inactive).

Question: And the GI50 (A549)?
Answer: The GI50 was > 100 µM (inactive).

Question: And the GI50 (SR)?
Answer: The GI50 was > 100 µM (inactive).

Question: What about the GI50 (NCI-H460) of the same molecule?
Answer: The GI50 was > 100 µM (inactive).

Question: What about the GI50 (NCI-H23) of the same molecule?
Answer: Its GI50 is > 100 µM (inactive).

Question: What about the GI50 (M14) of the same molecule?
Answer: The GI50 was > 100 µM (inactive).

Question: And the GI50 (SK-MEL-2)?
Answer: The GI50 was > 100 µM (inactive).

Question: What about the GI50 (OVCAR-3) of the same molecule?
Answer: The GI50 was > 100 µM (inactive).

Question: And the GI50 (NCI-H522)?
Answer: The GI50 was > 100 µM (inactive).

Question: And the GI50 (SK-OV-3)?
Answer: The GI50 was > 100 µM (inactive).

Question: What about the GI50 (U-251) of the same molecule?
Answer: The GI50 was > 100 µM (inactive).

Question: And the GI50 (OVCAR-5)?
Answer: Its GI50 is > 100 µM (inactive).

Question: And the GI50 (RPMI-8226)?
Answer: The GI50 was > 100 µM (inactive).

Question: What about the GI50 (MDA-MB-435) of the same molecule?
Answer: The GI50 was > 100 µM (inactive).

Question: What about the GI50 (NCI-H226) of the same molecule?
Answer: The GI50 was > 100 µM (inactive).

Question: What about the GI50 (Hs-578T) of the same molecule?
Answer: The GI50 was > 100 µM (inactive).

Question: And the GI50 (PC-3)?
Answer: Its GI50 is > 100 µM (inactive).

Question: What about the GI50 (HCC 2998) of the same molecule?
Answer: The GI50 was > 100 µM (inactive).

Question: And the GI50 (SK-MEL-28)?
Answer: Its GI50 is > 100 µM (inactive).

Question: And the GI50 (786-0)?
Answer: Its GI50 is > 100 µM (inactive).

Question: What about the GI50 (SF-268) of the same molecule?
Answer: Its GI50 is > 100 µM (inactive).

Question: And the GI50 (OVCAR-4)?
Answer: The GI50 was > 100 µM (inactive).

Question: And the GI50 (RXF 393)?
Answer: Its GI50 is > 100 µM (inactive).

Question: And the GI50 (SF-295)?
Answer: Its GI50 is > 100 µM (inactive).

Question: What about the GI50 (HCT-116) of the same molecule?
Answer: The GI50 was > 100 µM (inactive).

Question: What about the GI50 (IGROV-1) of the same molecule?
Answer: The GI50 was > 100 µM (inactive).

Question: What about the GI50 (HCT-15) of the same molecule?
Answer: Its GI50 is greater than 100 µM.

Question: What about the GI50 (HT-29) of the same molecule?
Answer: The GI50 was > 100 µM (inactive).

Question: What about the GI50 (MOLT-4) of the same molecule?
Answer: The GI50 was > 100 µM (inactive).

Question: And the GI50 (SNB-75)?
Answer: Its GI50 is > 100 µM (inactive).

Question: What about the GI50 (SF-539) of the same molecule?
Answer: Its GI50 is > 100 µM (inactive).

Question: What about the GI50 (LOX IMVI) of the same molecule?
Answer: Its GI50 is > 100 µM (inactive).

Question: And the GI50 (Malme-3M)?
Answer: The GI50 was > 100 µM (inactive).

Question: What about the GI50 (HOP-62) of the same molecule?
Answer: Its GI50 is > 100 µM (inactive).

Question: What about the GI50 (MDA-N) of the same molecule?
Answer: The GI50 was > 100 µM (inactive).

Question: What about the GI50 (CCRF-CEM) of the same molecule?
Answer: Its GI50 is > 100 µM (inactive).

Question: What about the GI50 (CAKI-1) of the same molecule?
Answer: The GI50 was > 100 µM (inactive).

Question: And the GI50 (SW-620)?
Answer: The GI50 was > 100 µM (inactive).

Question: What about the GI50 (MCF7) of the same molecule?
Answer: The GI50 was > 100 µM (inactive).

Question: And the GI50 (SNB-19)?
Answer: Its GI50 is > 100 µM (inactive).

Question: What about the GI50 (K562) of the same molecule?
Answer: The GI50 was > 100 µM (inactive).

Question: And the GI50 (MDA-MB-231)?
Answer: The GI50 was > 100 µM (inactive).

Question: And the GI50 (A498)?
Answer: The GI50 was > 100 µM (inactive).

Question: And the GI50 (OVCAR-8)?
Answer: The GI50 was > 100 µM (inactive).

Question: And the GI50 (UO-31)?
Answer: Its GI50 is > 100 µM (inactive).

Question: And the GI50 (KM12)?
Answer: The GI50 was > 100 µM (inactive).

Question: What about the GI50 (HL-60) of the same molecule?
Answer: The GI50 was > 100 µM (inactive).

Question: What about the GI50 (UACC-62) of the same molecule?
Answer: Its GI50 is > 100 µM (inactive).

Question: What about the GI50 (EKVX) of the same molecule?
Answer: Its GI50 is > 100 µM (inactive).

Question: What about the GI50 (UACC-257) of the same molecule?
Answer: The GI50 was > 100 µM (inactive).
